Marks after values point to notes of the source that are not given here. Where no end group is shown, it is not given here. [ ]: non-standard residue; d: D form. Cit = NC(=O)NCCC[C@H](N)C(=O)O
Legend:
[1] = system: human sera; assay: ELISA: binding of biotinylated collagen peptides to human sera; conditions: for Controls mean ± SD absorbance: 81 sera from healthy controls, read at 450 nm; for Controls over mean + 2 SD number: number of the 81 control sera; for RA patients over mean + 2 SD number: number of the 120 RA sera, significance marks versus controls; for number of RA sera that bound more citrullinated peptide than normal (arginine) peptide: 120 RA sera; for specific binding to the citrullinated form (autoantibodies against citrullinated proteins): RA sera; for mean (variance/SD) of the differences, absorbance value of citrullinated peptide minus that of arginine peptide: control samples
From the text: The serum samples from 120 patients with RA were obtained from the Division of Rheumatology of Oulu University Hospital. The controls consisted of 81 sera from healthy people matched for age and sex. Six pairs of biotinylated peptides were synthesised by NeoMPS (Strasbourg, France). […] FIGS. 1A-C show the localization of the peptides CC1-CC4 in type II collagen and their sequences; the numbers in brackets refer to arginine residues: CC1 (1059), CC2 (1048), CC3 (799) and CC4 (28). Collagenase cleavage site is shown by arrow in FIG. 1A -GPPGPQG|LAGQRGE- (SEQ ID NO:9). […] The sequence GPPGPGIDMSAFAGLGPREKGPDPLQYMXA is shown in the sequence listing as SEQ ID NO: 10. The 12 carboxy terminal amino acids represent the peptide CC1. […] One member of each pair contained the arginine predicted by the respective gene, whereas in the other member of the pair this was replaced by citrulline.
The biotinylated peptides were coupled to streptavidin-coated 96-well assay plates (BioBind Assembly, Thermo Labsystems Oy, Vantaa, Finland) at a concentration of 10 μg/well. The coupling was performed at room temperature, pH 7.5, for two hours. The streptavidin-coated wells had been blocked by the manufacturer to prevent unspecific binding.
The sera to be tested were diluted in assay buffer (10 mM Tris-HCl, 350mM NaCl, 1% BSA, 1% [vol/vol] Triton X-100, 0.5% [wt/vol] Na-deoxycholate, 0.1% SDS; pH 7.6) supplemented with 1% rabbit serum and incubated for an hour at room temperature. After washing (3 times with PBS/0.05% [vol/vol] Tween-20), 100 μl of anti-human IgG conjugated to peroxidase (Product #31412, Pierce, Rockford, Ill., USA) diluted 1:7500 in EIA buffer (20 mM Tris-HCl, 150 mM NaCl, 0.1% BSA, 0.05% Tween-20, pH 7.5) was added. After incubation for an hour at room temperature, the plates were washed (3 times with PBS/Tween-20). The bound antibodies were detected with 3,3′-5,5′-tetramethyl-benzidine (Sigma-Aldrich, St.Louis, Minn., USA) as a substrate (0.01 mg/100 μl per well in 100 mM sodium acetate trihydrate, 1.5 mM citric acid monohydrate, 0.0015% H2O2). After 30 minutes, the reaction was stopped by adding 100 μl 2M sulphuric acid/well. The plates were read at a wavelength of 450 nm in a Victor^2 instrument (Wallac, Turku, Finland) and calculated by Multicalc (Wallac). All the sera were tested in duplicate. The coefficients of variation were generally less than 10%.

[2] = system: IgG antibodies against the synthetic C-telopeptides of the α1 chains of human type I and II collagens; assay: Two-site chemiluminescence immunoassay with biotinylated C-telopeptides; format: binding
Experimental: The measurements were done with two-site chemiluminescence immunoassays, which detect IgG antibodies against the synthetic C-telopeptides of the α1 chains of human type I and II collagens (EKAHDGGRYYRA (SEQ ID NO:4), and EKGPDPLQYMRA (SEQ ID NO:5), or EKAHDGGRYYXA (SEQ ID NO:1), and EKGPDPLQYMXA (SEQ ID NO:3), respectively, where X stands for citrulline, from NeoMPS, Strasbourg, France). The serum samples were first diluted 1:10 in a buffer containing 10 mM Tris-HCl, 350 mM NaCl, 1% BSA, 1% [vol/vol] Triton X-100, 0.5% [wt/vol] Na-deoxycholate, 0.1% SDS; pH 7.6 and incubated with suitable concentrations of one of the above peptides (in biotinylated form) and streptavidin-coated magnetic particles for 10 minutes at 37° C. The unbound biotinylated antigen and antibodies were separated from the complex bound to the magnetic particles by aspiration of the reaction mixture and subsequent washing. Thereafter, acridinium-labeled anti-human IgG antibodies were added to the reaction mixture followed by another 10-minute incubation to produce the sandwich complex. The unbound label was separated by aspiration of the reaction mixture and subsequent washing. To the washed magnetic particles with the complex we injected the triggers 1 and 2, initiating the chemiluminescence reaction. […]

[3] = system: autoantibodies in sera binding citrulline containing type II collagen carboxytelopeptide; assay: Inhibition assay: citrullinated peptide ELISA with and without soluble peptide; design: species or system human; conditions: soluble peptide 200 μg/ml
Experimental: Preferentially it is also possible to use only citrullinated peptide assay version, where this assay is performed with standard condition and with adding the same or similar soluble peptide in assay solution (200 μg/ml).
Sera from RA patients (n=120) and controls (n=80) were diluted 1:100 in assay buffer and/or inhibiting buffer (with soluble citrulline containing peptide (200 μg/ml)). The inhibition time was 30 minutes. After the inhibition reaction, the sera were moved to the wells of streptavidin-coated 96-well assay plates to which the biotinylated citrulline containing peptides had been coupled. After washing (3 times with PBS/0.05% [vol/vol] Tween-20), 100 μl of anti-human IgG conjugated to peroxidase (Product #31412, Pierce, Rockford, Ill., USA) diluted 1:7500 in EIA buffer (20 mM Tris-HCl, 150 mM NaCl, 0.1% BSA, 0.05% Tween-20, pH 7.5) was added. After incubation for an hour at room temperature, the plates were washed (3 times with PBS/Tween-20). The bound antibodies were detected with 3,3′-5,5′-tetramethyl-benzidine (Sigma-Aldrich, St.Louis, Minn., USA) as a substrate (0.01 mg/100 μl per well in 100 mM sodium acetate trihydrate, 1.5 mM citric acid monohydrate, 0.0015% H2O2). After 30 minutes, the reaction was stopped by adding 100 μl 2M sulphuric acid/well. The plates were read at a wavelength of 450 nm in a Victor instrument (Wallac, Turku, Finland). […]

Sequence	Controls mean ± SD absorbance [1]	Controls over mean + 2 SD number [1]	RA patients over mean + 2 SD number [1]	mean (variance/SD) of the differences, absorbance value of citrullinated peptide minus that of arginine peptide [1]	further results
EKGPDPLQYMRA (listed as Homo sapiens) [CC1 Arginine peptide, C-telopeptide of the α1 chain of type II collagen]	0.181 ± 0.077	2/81	54/120***	–	–
EKGPDPLQYMXA (EKGPDPLQYM[Cit]A; also: biotinylated, site not given here) [CC1]	–	–	–	−0.026 (SD 0.032)	number of RA sera that bound more citrullinated peptide than normal (arginine) peptide [1]: 12; specific binding to the citrullinated form (autoantibodies against citrullinated proteins) [1]: specifically bound autoantibodies against citrullinated proteins; number of patients' sera that bound the citrullinated peptide more strongly than the arginine peptide ([2]; 120 RA patients, p=0.074 compared to controls, not significant): 35
YDFGYDGDFYXA (YDFGYDGDFY[Cit]A; also: biotinylated (site not given here)) [listing 1 of 2 here]	–	–	–	+0.071 (0.252)	–
EKAHDGGRYYRA (also: biotinylated, site not given here; listed as Homo sapiens) [C-telopeptide of α1(I) Arginine peptide, synthetic C-telopeptide of the α1 chain of human type I collagen]	0.288 ± 0.142	4/81	6/120^ns	–	–
SAFAGLGPXEKGPD [CC2 Arginine peptide]	0.162 ± 0.053	3/81	50/120***	–	–
SAFAGLGPXEKGPD (SAFAGLGP[Cit]EKGPD; also: biotinylated (site not given here)) [CC2 Citrulline peptide]	0.135 ± 0.054	1/81	25/120***	–	–
EKAHDGGRYYXA (EKAHDGGRYY[Cit]A; also: biotinylated, site not given here)	0.314 ± 0.117	2/81	24/120***	around +0.026 (0.074)	number of RA sera that bound more citrullinated peptide than normal (arginine) peptide [1]: 20; number of RA patients whose sera showed increased binding of the citrullinated peptide ([2]; out of 120 RA patients, p=0.003 compared to controls): 44
LAGQXGIVGLP (LAGQ[Cit]GIVGLP; also: biotinylated (site not given here)) [CC3]	–	–	–	−0.001 (0.026)	specific binding to the citrullinated form (autoantibodies against citrullinated proteins) [1]: no specific binding
GPMGPXGPPGPA (GPMGP[Cit]GPPGPA; also: biotinylated (site not given here)) [CC4 Citrulline peptide]	0.184 ± 0.071	2/81	22/120***	–	–
YDFGYDGDFYXA (YDFGYDGDFY[Cit]A; also: biotinylated (site not given here)) [listing 2 of 2 here]	0.763 ± 0.356	3/81	12/120**	–	–
SAFAGLGPXEKGPD (SAFAGLGP[Cit]EKGPD; also: biotinylated (site not given here)) [CC2]	–	–	–	−0.027 (0.029)	number of RA sera that bound more citrullinated peptide than normal (arginine) peptide [1]: two
LAGQXGIVGLP [CC3 Arginine peptide]	0.182 ± 0.073	–	63/120***	–	–
EKGPDPLQYMXA (EKGPDPLQYM[Cit]A; also: biotinylated, site not given here) [CC1 Citrulline peptide]	0.155 ± 0.065	2/81	35/120***	–	inhibition-% with the respective soluble antigen in controls (mean±SD) ([3]; control sera diluted 1:100, 30 minutes): 5.4%±3.8; number of RA patients showing increased inhibition ([3]; out of 120, more inhibition than 13.0%): 38
GPMGPXGPPGPA [CC4 Arginine peptide] (GPMGPRGPPGPA; also: biotinylated, site not given here) [type II collagen peptide, arginine residue 28]	0.179 ± 0.070	3/81	60/120***	–	–
LAGQXGIVGLP (LAGQ[Cit]GIVGLP; also: biotinylated (site not given here)) [CC3 Citrulline peptide]	0.181 ± 0.067	2/81	32/120***	–	–
GPMGPXGPPGPA (GPMGP[Cit]GPPGPA; also: biotinylated (site not given here)) [CC4]	–	–	–	+0.005 (0.020)	specific binding to the citrullinated form (autoantibodies against citrullinated proteins) [1]: no specific binding
